Source: publication PMC11988454, “Discovery of synthetic small molecules targeting the central regulator of Salmonella pathogenicity” (Science Advances, 2025)

Assays:
[1] = tested on: S. Typhimurium SL1344; assay: Growth in LB medium (OD at 600 nm); assay type: cell-based; conditions: C26 at different concentrations
Description: Experiment performed in a 96-well plate. Growth assessed by measuring the OD at 600 nm (N = 3 biological replicates).

[2] = tested on: T3SS-1 (SipA-HiBiT injection into HeLa cells); assay: SipA-HiBiT injection assay (split NanoLuc HiBiT/LgBiT); assay type: cell-based, S. Typhimurium
Description: SipA injection assay was performed using the split-Nanoluc (HiBiT/LgBiT) system as described previously ([37], [38]). In brief, NanoLuc is split into two parts: LgBiT, comprising 10 of the 11 β strands of the luciferase, and HiBiT, a short peptide with high affinity to LgBiT, contributing the missing β strand to make a functional luciferase. S. Typhimurium strains expressing SipA-HiBiT were grown in LB supplemented with 0.3 M NaCl and either compound at different concentrations or 1% (v/v) DMSO. Cultures were incubated at 37°C with shaking at 180 rpm until an OD600 of 0.9 was reached. Bacteria were then pelleted and washed twice with Hanks’ balanced salt solution (HBSS). The bacterial suspension was diluted to obtain a multiplicity of infection (MOI) of 50 and then used to infect the LgBiT-expressing HeLa cell. Luminescence was measured using a Tecan Sparc Multimode reader.

[3] = tested on: T3SS-1 proteins SipA, SctE (SipB), SctP (InvJ); T1SS protein SiiF; assay: Western blotting of secreted and whole-cell proteins; assay type: cell-based, S. Typhimurium; conditions: Western blot
Description: Western blot analysis to quantify secreted and nonsecreted proteins was carried out as previously described ([66]). After a 5-hour culture under SPI-1–inducing conditions, cultures were centrifuged at 10,000g for 2 min at 4°C to separate cell pellets for the quantification of target proteins in whole cells, and the supernatant for the quantification of secreted proteins. The supernatants were first filtered with a 0.22-μm pore size filter. Sodium deoxycholic acid was then added to a final concentration of 0.1% (w/v) followed by a protein precipitation with 10% trichloroacetic acid (v/v) for 30 min at 4°C. The samples were pelleted by centrifugation at 20,000g for 20 min at 4°C to retrieve precipitated proteins, which were lastly washed with acetone before resuspension in SDS–polyacrylamide gel electrophoresis (PAGE) loading buffer. Whole-cell samples were directly resuspended in SDS-PAGE loading buffer.

[4] = tested on: S. Typhimurium invasion of MDCK cells; assay: Invasion assay into MDCK cells; assay type: cell-based; conditions: C26 100 μM, MOI 5; DMSO control 6.85
Description: MDCK (NBL-2) cells were seeded in a 24-well plate at a density of 10^5 cells per well in 1 ml of MEM (Gibco) and grown for 5 to 6 days, to allow polarization. Cells were washed every 2 days with fresh medium. After 5 days, each well contained ~1.8 × 10^6 MDCK cells. Bacteria were grown as for the invasion assay of HeLa cells and diluted to obtain an MOI of 5. The plate was centrifuged for 3 min at 300g to synchronize the infection and then incubated for 25 min at 37°C and 5% (v/v) CO2 to allow Salmonella invasion into MDCK cells. The quantification of invasiveness was carried out as described above for HeLa cells.

[5] = target: T1, HilC (Salmonella typhimurium, UniProt E1WAB2); assay: EMSA, binding to hilA promoter, HilC; assay type: biochemical, S. Typhimurium
T1 construct: His6 followed by TEV protease cleavage site (N, cleaved yes); made in house; host or cells: E. coli C41(DE3)
Description: EMSAs were performed similarly to as described previously ([39]) using a 62–base pair double-stranded (dsDNA) fragment of the hilA promoter, encompassing the A1 binding site ([82]). dsDNA fragments were generated by melting the complementary primers PhilA_A1_f / PhilA_A1_r (table S10) together in TE buffer [10 mM Tris (pH 8.0) and 1 mM EDTA] at 95°C for 10 min before slowly cooling to r.t. The forward primer was modified with a 5′-Cy5 fluorescent dye for detection. The protein (600 nM) was incubated with 50 nM labeled DNA in EMSA buffer [20 mM Tris (pH 8.0), 100 mM KCl, 100 μM EDTA, and 3% glycerol]. C26 was diluted first in DMSO and subsequently 1:100 into the protein-DNA sample. Samples were incubated at 37°C for 15 min, supplemented with diluted DNA loading dye, and separated on a 1.5-mm-thick, 6% (w/v) TBE polyacrylamide gel at 6°C at a constant voltage of 100 V. Gels were imaged using a ChemiDocMP imaging system (Bio-Rad).

[6] = target: HilD-HilE heterodimer (Salmonella typhimurium, UniProt P0CL08); assay: MST dimerization assay HilD-HilE; assay type: binding, S. Typhimurium; conditions: 100 μM compound
Description: MST measurements for the binding of HilD to HilE were performed as previously described ([39]). In summary, enhanced yellow fluorescent protein (EYFP)-HilD (100 nM) was incubated with 100 μM either oleic acid or C26 [with a final concentration of 1% (v/v) DMSO] for 10 min at r.t. (22° to 25°C) and subsequently mixed 1:1 with varying concentrations of HilE. Samples were incubated together for 10 min at r.t., centrifuged for 5 min, and loaded to standard capillaries (NanoTemper Technologies GmbH, no. MO-K022). MST runs were performed at 25°C on a NanoTemper Monolith NT.115, with an excitation power of 60% and medium MST power. Data were analyzed using the MO.Affinity Analysis v2.3 software, and affinity constants were calculated using the Kd model.

[7] = tested on: S. enterica clinical isolates (SipA secretion through T3SS-1); assay: Plasmid-based SipA secretion assay in clinical isolates; assay type: cell-based; conditions: C26 100 μM, 75 strains
Description: The plasmid pT10-SipA-NLuc was electroporated into electrocompetent cells of S. enterica clinical isolates. Bacteria at an initial OD600 of 0.02 were grown for 5 hours in 1 ml of LB supplemented with 0.3 M NaCl, kanamycin (50 μg/ml), and either compound at 100 μM or 1% (v/v) DMSO. Cultures were pelleted, and then 25 μl of the supernatant was transferred to a 384-well plate to measure luminescence as previously described.

[8] = target: T2, HilD (Salmonella typhimurium, UniProt E1WAC0); assay: Whole-cell HilD activity assay (PhilA-sfGFP activation); assay type: cell-based, S. Typhimurium; conditions: C26 100 μM, strain overexpressing hilD
T2 construct: Strain PhilA-sfGFP and the isogenic ΔhilD PhilA-sfGFP were used for this purpose; endogenous in cells; host or cells: S. Typhimurium SL1344 strain PhilA-sfGFP
T2 sequence (E1WAC0 whole entry): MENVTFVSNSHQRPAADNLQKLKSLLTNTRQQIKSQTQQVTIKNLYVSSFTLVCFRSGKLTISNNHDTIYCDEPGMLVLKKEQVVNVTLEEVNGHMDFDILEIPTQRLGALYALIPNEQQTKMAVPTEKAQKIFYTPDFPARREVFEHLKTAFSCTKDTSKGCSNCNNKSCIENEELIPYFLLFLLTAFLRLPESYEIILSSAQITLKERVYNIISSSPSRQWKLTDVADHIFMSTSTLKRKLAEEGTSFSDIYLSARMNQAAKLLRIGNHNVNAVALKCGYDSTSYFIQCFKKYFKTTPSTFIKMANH

T1 sequence (E1WAB2 whole entry): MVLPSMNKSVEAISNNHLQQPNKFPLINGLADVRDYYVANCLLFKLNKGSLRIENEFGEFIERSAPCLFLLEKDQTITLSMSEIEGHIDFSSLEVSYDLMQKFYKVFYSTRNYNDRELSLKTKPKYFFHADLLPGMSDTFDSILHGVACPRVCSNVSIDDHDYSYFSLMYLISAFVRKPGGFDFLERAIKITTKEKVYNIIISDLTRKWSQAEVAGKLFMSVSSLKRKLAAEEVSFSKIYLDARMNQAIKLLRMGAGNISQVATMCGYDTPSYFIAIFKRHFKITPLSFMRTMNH
HilD-HilE heterodimer, sequence (P0CL08 whole entry, one chain of several): as the sequence (E1WAC0 whole entry) above

CN(CC(=O)NCc1ccc2c(c1)OCO2)Cc1ccc(Br)s1 [C26, N-(benzo[d][1,3]dioxol-5-ylmethyl)-2-{[(5-bromothiophen-2-yl)methyl](methyl)amino}acetamide]
growth of S. Typhimurium [1]: did not impair the growth
residual SipA injection ([2]; C26 100 μM added to bacterial culture, 1 hour postinfection, MOI 50): 11%
SipA injection, % of the untreated bacteria ([2]; C26 100 μM only in infection inoculum, 1 hour postinfection, MOI 50): 48%
SipA injection into HeLa cells over a 5-hour infection time ([2]; C26 added to bacterial culture): dose-dependent decrease
SipA, SctE and SctP secretion into the culture supernatant [3]: reduced in a dose-dependent manner
expression of SipA, SctE and SctP in whole cells [3]: blocked the expression
expression of SiiF ([3]; FLAG-tagged SiiF): dose-dependent reduction
Invasion of MDCK cells (%), of the original inoculum [4]: 1.6%
DNA binding activity of HilC (hilA promoter) [5]: no effect
formation of HilD-HilE heterodimers [6]: no effect on heterodimerization
sensitivity of clinical isolates (SipA secretion) [7]: all sensitive
decrease of PhilA activation ([8]; WT background): 14%
decrease of PhilA activation ([8]; ΔhilD ΔhilC ΔrtsA background): 18%
